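Each compound was tested at five concentrations against cells in 96-well plates for 48 hours. GI50 = concentration required for 50% inhibition of growth.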 Active and inactive are the calls of the source. No stated cut-off is given here; in the data, active = GI50 up to about 1.1 µM and inactive = higher.
Assays:
Assay in all cases: growth of human tumour cells (NCI), 48 h
[1] = tested on: A498
[2] = tested on: SK-MEL-28
[3] = tested on: MCF7
[4] = tested on: BT-549
[5] = tested on: COLO 205
[6] = tested on: MDA-MB-231
[7] = tested on: OVCAR-5
[8] = tested on: SN12C
[9] = tested on: IGROV-1
[10] = tested on: SNB-75
[11] = tested on: UO-31
[12] = tested on: OVCAR-4
[13] = tested on: SF-295
[14] = tested on: SF-539
[15] = tested on: HCT-116
[16] = tested on: MDA-N
[17] = tested on: UACC-62
[18] = tested on: U-251
[19] = tested on: NCI-H226
[20] = tested on: MDA-MB-435

Row | SMILES | GI50 [1] | GI50 [2] | GI50 [3] | GI50 [4] | GI50 [5] | GI50 [6] | GI50 [7] | GI50 [8] | GI50 [9] | GI50 [10] | GI50 [11] | GI50 [12] | GI50 [13] | GI50 [14] | GI50 [15] | GI50 [16] | GI50 [17] | GI50 [18] | GI50 [19] | GI50 [20]
1 | O=C1Nc2ccc(Br)cc2C1=Nc1cccnc1 | > 100 µM (inactive) | 19.5 µM (inactive) | 22.7 µM (inactive) | 17.1 µM (inactive) | 67.3 µM (inactive) | 18.1 µM (inactive) | 29.3 µM (inactive) | 18.4 µM (inactive) | 19 µM (inactive) | > 100 µM (inactive) | 11.1 µM (inactive) | 7.23 µM (inactive) | 50.4 µM (inactive) | 16.5 µM (inactive) | 20.1 µM (inactive) | 17 µM (inactive) | 17.3 µM (inactive) | 12.4 µM (inactive) | 31.4 µM (inactive) | 13 µM (inactive)
2 | CCc1ncc(CO)n1Cc1cccc2ccccc12 | > 100 µM (inactive) | > 100 µM (inactive) | > 100 µM (inactive) | > 100 µM (inactive) | > 100 µM (inactive) | > 100 µM (inactive) | > 100 µM (inactive) | > 100 µM (inactive) | > 100 µM (inactive) | 31.3 µM (inactive) | > 100 µM (inactive) | > 100 µM (inactive) | 53.1 µM (inactive) | > 100 µM (inactive) | > 100 µM (inactive) | > 100 µM (inactive) | > 100 µM (inactive) | > 100 µM (inactive) | > 100 µM (inactive) | > 100 µM (inactive)
3 | O=C(CCSC(CC(=O)c1ccc(Cl)cc1)c1ccc(Cl)cc1)Nc1ccc(Cl)cc1 (stereo not given) | 12.4 µM (inactive) | 15.4 µM (inactive) | 3.72 µM (inactive) | 13.5 µM (inactive) | 18.6 µM (inactive) | 15.2 µM (inactive) | 16.4 µM (inactive) | 12.4 µM (inactive) | 14.9 µM (inactive) | 21.8 µM (inactive) | 14 µM (inactive) | 14.7 µM (inactive) | 9.44 µM (inactive) | 18.4 µM (inactive) | 5.86 µM (inactive) | 9.68 µM (inactive) | 10.2 µM (inactive) | 9.06 µM (inactive) | 20.3 µM (inactive) | 12.3 µM (inactive)
4 | O=C(/C=C/c1ccc(OCC(=O)N2CCN(c3ccccc3)CC2)cc1)c1ccc(Cl)cc1 | 23.4 µM (inactive) | > 100 µM (inactive) | > 100 µM (inactive) | 43.4 µM (inactive) | > 100 µM (inactive) | 25.5 µM (inactive) | > 100 µM (inactive) | 89.5 µM (inactive) | 38.6 µM (inactive) | 12 µM (inactive) | > 71 µM (inactive) | 32.6 µM (inactive) | 18.6 µM (inactive) | 19 µM (inactive) | 54.5 µM (inactive) | > 100 µM (inactive) | 61.8 µM (inactive) | 15.7 µM (inactive) | 50.8 µM (inactive) | > 100 µM (inactive)
5 | Cc1ccc2c(c1)C(C1Cc3cccc(C)c3C1=O)OC2=O (stereo not given) | 46.2 µM (inactive) | > 100 µM (inactive) | 81.1 µM (inactive) | > 100 µM (inactive) | > 100 µM (inactive) | > 100 µM (inactive) | > 100 µM (inactive) | > 100 µM (inactive) | > 100 µM (inactive) | 81.5 µM (inactive) | > 100 µM (inactive) | 75.3 µM (inactive) | > 100 µM (inactive) | > 100 µM (inactive) | > 100 µM (inactive) | > 100 µM (inactive) | 94.6 µM (inactive) | > 100 µM (inactive) | 72.9 µM (inactive) | 47.5 µM (inactive)
6 | CCN1C(=O)CS/C1=N\NC(=O)CSc1nc2ccccc2c(=O)n1CC | > 100 µM (inactive) | > 100 µM (inactive) | > 100 µM (inactive) | > 100 µM (inactive) | > 100 µM (inactive) | > 100 µM (inactive) | > 100 µM (inactive) | > 100 µM (inactive) | > 100 µM (inactive) | > 100 µM (inactive) | > 100 µM (inactive) | > 100 µM (inactive) | > 100 µM (inactive) | > 100 µM (inactive) | > 100 µM (inactive) | > 100 µM (inactive) | > 100 µM (inactive) | > 100 µM (inactive) | > 100 µM (inactive) | > 100 µM (inactive)
7 | CCOC(=O)C1=C(C)NC(C)=C(C(=O)OCC)C1c1ccc(C)cc1 | 40.6 µM (inactive) | > 100 µM (inactive) | 11.2 µM (inactive) | 52.8 µM (inactive) | > 10 µM (inactive) | 29.4 µM (inactive) | 41.6 µM (inactive) | 22.1 µM (inactive) | 27 µM (inactive) | 24.8 µM (inactive) | 51.1 µM (inactive) | 54.3 µM (inactive) | 27.4 µM (inactive) | 37.1 µM (inactive) | 36.1 µM (inactive) | 31.8 µM (inactive) | 39.4 µM (inactive) | 46.9 µM (inactive) | 35 µM (inactive) | 35.4 µM (inactive)
8 | Cc1ccc(S(=O)(=O)N2CCN(CCO)CCN(S(=O)(=O)c3ccc(C)cc3)CCN(CCO)CC2)cc1 | 24.7 µM (inactive) | 16.3 µM (inactive) | 13.4 µM (inactive) | 60.8 µM (inactive) | 15.3 µM (inactive) | 21.7 µM (inactive) | 44.1 µM (inactive) | 45 µM (inactive) | 21.5 µM (inactive) | 26.3 µM (inactive) | 22.6 µM (inactive) | 15 µM (inactive) | 31.7 µM (inactive) | 15.8 µM (inactive) | 15 µM (inactive) | 27.2 µM (inactive) | 18.2 µM (inactive) | 25.4 µM (inactive) | 20.9 µM (inactive) | 15.1 µM (inactive)
9 | CCCCCCCCCCC1OC([C@@H](O)CC[C@H](O)C2CC[C@@H](CCCCCCCC(O)CC3=CC(C)OC3=O)O2)CCC1O (stereo not given in full) | > 14.9 µM (inactive) | > 17.9 µM (inactive) | 6.79 µM (inactive) | 12.4 µM (inactive) | 6.85 µM (inactive) | > 16.3 µM (inactive) | > 15 µM (inactive) | 9.12 µM (inactive) | 2.61 µM (inactive) | 3.41 µM (inactive) | 4.41 µM (inactive) | 8.61 µM (inactive) | 0.708 µM (active) | 14.4 µM (inactive) | 0.148 µM (active) | 3.57 µM (inactive) | 4.72 µM (inactive) | 14.4 µM (inactive) | 14 µM (inactive) | 7.24 µM (inactive)
10 | O=C(/C=C\Nc1ccccc1O)C(Cl)(Cl)Cl | 35.6 µM (inactive) | 43.1 µM (inactive) | 20.8 µM (inactive) | 52.2 µM (inactive) | 48.3 µM (inactive) | > 100 µM (inactive) | 77.4 µM (inactive) | 72.8 µM (inactive) | 43.4 µM (inactive) | 30.3 µM (inactive) | 25.1 µM (inactive) | 39.1 µM (inactive) | 3.87 µM (inactive) | 56.2 µM (inactive) | 37.8 µM (inactive) | 25.3 µM (inactive) | < 0.01 µM (active) | 26.9 µM (inactive) | > 100 µM (inactive) | 20.6 µM (inactive)
11 | Cc1ccc(-c2c3c(n(C4OC(CO)C(O)C(O)C4O)c(=S)c2C#N)CC(C)(C)CC3=O)cc1 (stereo not given) | > 100 µM (inactive) | 52.2 µM (inactive) | 45.7 µM (inactive) | 50 µM (inactive) | > 10 µM (inactive) | 80.5 µM (inactive) | > 100 µM (inactive) | > 100 µM (inactive) | > 100 µM (inactive) | 49.1 µM (inactive) | 60 µM (inactive) | > 100 µM (inactive) | > 100 µM (inactive) | 39.6 µM (inactive) | 40.4 µM (inactive) | 46 µM (inactive) | 46.5 µM (inactive) | 52.4 µM (inactive) | 48.6 µM (inactive) | 65.2 µM (inactive)
12 | CC1=CC(C)C(C)N(CCNS(=O)(=O)c2ccc(C)cc2)c2ccccc21 (stereo not given) | 14.6 µM (inactive) | 12.9 µM (inactive) | 14.2 µM (inactive) | 17.1 µM (inactive) | 12.8 µM (inactive) | 13.8 µM (inactive) | 18.7 µM (inactive) | 12.6 µM (inactive) | 17 µM (inactive) | 15.7 µM (inactive) | 16.5 µM (inactive) | 13.3 µM (inactive) | 13.8 µM (inactive) | 13.4 µM (inactive) | 12.9 µM (inactive) | 12.5 µM (inactive) | 12.2 µM (inactive) | 16.5 µM (inactive) | 12.3 µM (inactive) | 13.5 µM (inactive)
13 | COC(=O)c1cc(C)ccc1C1CN=NC12Cc1ccc(C)cc1C2=O (stereo not given) | 29.5 µM (inactive) | > 100 µM (inactive) | 29.9 µM (inactive) | 30.1 µM (inactive) | 15.8 µM (inactive) | 63.8 µM (inactive) | > 100 µM (inactive) | 44.9 µM (inactive) | 63.4 µM (inactive) | 30.3 µM (inactive) | 27.7 µM (inactive) | 20 µM (inactive) | 38 µM (inactive) | 60.4 µM (inactive) | 27.1 µM (inactive) | 31.6 µM (inactive) | 54.7 µM (inactive) | 44.7 µM (inactive) | 24.8 µM (inactive) | 32.2 µM (inactive)
14 | COC(=O)[C@@H]1COC(C(C)(C)C)N1C(=O)C(c1ccccc1)c1ccccc1 (stereo not given in full) | > 100 µM (inactive) | > 100 µM (inactive) | 64.3 µM (inactive) | > 100 µM (inactive) | 61.7 µM (inactive) | 45.2 µM (inactive) | > 100 µM (inactive) | 32.1 µM (inactive) | 73.1 µM (inactive) | 32.4 µM (inactive) | 52.5 µM (inactive) | 43.2 µM (inactive) | 60.1 µM (inactive) | 28.7 µM (inactive) | 41.3 µM (inactive) | 26 µM (inactive) | 44.1 µM (inactive) | 42 µM (inactive) | 49.7 µM (inactive) | 36.7 µM (inactive)
